From patent US5387671A, “Hexa- and heptapeptide anaphylatoxin-receptor ligands” (Abbott Laboratories, priority 1990, dated 1995)
Numbered stars: 1 amine (or outer) side, 2 acyl side, 3 side chain; on linkers, the order of the positions; unused ones are H or OH. Square brackets hold non-standard residues; d marks the D form. Peptide text beside a SMILES is read from it. * marks the point of attachment. X1 = N=C(N)NCCC[C@@H](NC[C@H](Cc1ccccc1)N*)C(=O)O; X4 = NCCCC[C@@H](CN1CCC[C@H]1C(=O)[*:2])N[*:1]; X2 = CN(CCCCC(Cc1ccccc1)C(=O)[*:2])[*:1]; X3 = CN(C(CCCc1ccccc1)C(=O)[*:2])[*:1]; d(β3hF) = N[C@@H](CC(=O)O)Cc1ccccc1; NMeCha = CN[C@@H](CC1CCCCC1)C(=O)O; NMeF = CN[C@@H](Cc1ccccc1)C(=O)O; NMeGABA = CN(CCCC(=O)[*:2])[*:1]; Cha = N[C@@H](CC1CCCCC1)C(=O)O; dCha = N[C@H](CC1CCCCC1)C(=O)O; NMeA = CN[C@@H](C)C(=O)O; Nle = CCCC[C@H](N)C(=O)O; Aze = O=C(O)[C@@H]1CCN1; Ahx = NCCCCCC(=O)O; βAla = NCCC(=O)O; Sar = CNCC(=O)O

target: T1, C5a Receptor (Homo sapiens, UniProt P21730); test: Anaphylatoxin Receptor Binding Ki Determination (inhibition of 125I-C5a binding to PMNL membrane fragments); settings: 0.03-1 nM 125I-C5a; 2.5-25 ug/mL purified PMNL membrane fragments; filtration; read-out: In vitro C5a Receptor Binding Potency Ki
T1 construct: 2.5-25 ug/mL of purified PMNL membrane fragments; endogenous in cells; host or cells: PMNL (polymorphonuclear leukocytes), purified membrane fragments
T1 sequence (P21730 1-350): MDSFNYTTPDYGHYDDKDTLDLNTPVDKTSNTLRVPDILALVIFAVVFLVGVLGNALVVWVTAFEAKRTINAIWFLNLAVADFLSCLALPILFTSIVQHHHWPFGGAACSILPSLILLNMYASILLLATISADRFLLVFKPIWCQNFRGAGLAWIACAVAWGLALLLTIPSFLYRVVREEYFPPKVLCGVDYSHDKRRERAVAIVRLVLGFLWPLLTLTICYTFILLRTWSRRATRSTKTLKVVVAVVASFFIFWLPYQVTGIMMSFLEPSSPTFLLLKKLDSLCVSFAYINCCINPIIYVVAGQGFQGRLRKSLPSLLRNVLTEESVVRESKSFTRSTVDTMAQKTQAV
Text: Free and membrane-bound ligand were separated by filtration.

Question: How did the Ki turn out when `CN[C@@H](Cc1ccccc1)C(=O)N[C@@H](CCCCN)C(=O)N(C)[C@@H](C)C(=O)N[C@H](CC1CCCCC1)C(=O)N[C@@H](CC1CCCCC1)C(=O)N[C@H](CCCNC(=N)N)C(=O)O` [Example 34, (N-Methyl)Phenylalanyl-Lysyl-(N-Methyl)Alanyl-{(2R)-2-Amino-3-cyclohexylpropanoyl}-{(2S)-2-Amino-3-cyclohexylpropanoyl}-DArginyl-OH] (H-[NMeF]K[NMeA][dCha][Cha][dR]-OH) was run?
Answer: 34 nM

Question: For `C[C@H](NC(=O)[C@H](CCCCN)NC(=O)[C@@H](N)Cc1ccccc1)C(=O)N[C@@H](CC1CCCCC1)C(=O)NCCCCCC(=O)N[C@@H](CCCNC(=N)N)C(=O)O` [Example 10, H-Phenylalanyl-Lysyl-Alanyl-{(2S)-2-Amino-3-cyclohexylpropanoyl}-{6-Aminohexanoyl}-Arginyl-OH] (H-FKA[Cha][Ahx]R-OH), which Ki is on record?
Answer: 85000 nM

Question: `CC(C)C[C@H](NC(=O)[C@H](CC1CCCCC1)NC(=O)CCNC(=O)[C@H](CCCCN)NC(=O)[C@@H](N)Cc1ccccc1)C(=O)N[C@H](C)C(=O)N[C@@H](CCCNC(=N)N)C(=O)O` [Example 7, H-Phenylalanyl-Lysyl-{3-Aminopropanoyl}-{(2S)-2-Amino-3-cyclohexylpropanoyl}-Leucyl-DAlanyl-Arginyl-OH] (H-FK[βAla][Cha]L[dA]R-OH) was tested. Which Ki did it give?
Answer: 2200 nM

Question: With `N=C(N)NCCC[C@@H](NC(=O)[C@H](CC1CCCCC1)NC(=O)[C@@H](CC1CCCCC1)NC(=O)[C@@H]1CCN1C(=O)[C@H](CCCCN)NC(=O)[C@@H](N)Cc1ccccc1)C(=O)O` [Example 43, H-Phenylalanyl-Lysyl-{(2S)-Azetidine-2-carbonyl}-{(2R)-2-Amino-3-cyclohexylpropanoyl}-{(2S)-2-Amino-3-cyclohexylpropanoyl}-DArginyl-OH] (H-FK[Aze][dCha][Cha][dR]-OH) as the compound, how does the Ki read?
Answer: 23 nM

Question: For `CN[C@@H](Cc1ccccc1)C(=O)N[C@@H](CCCCN)C(=O)N1CCC[C@H]1CN[C@H](CC1CCCCC1)C(=O)N[C@@H](Cc1ccccc1)C(=O)N[C@H](CCCNC(=N)N)C(=O)O` [Example 103], which Ki is on record?
Answer: 360 nM

Question: `CN[C@@H](Cc1ccccc1)C(=O)N[C@@H](CCCCN)C(=O)N(C)CCCCC(Cc1ccccc1)C(=O)N[C@@H](Cc1ccccc1)C(=O)N[C@H](CCCNC(=N)N)C(=O)O` (stereo partly shown) [Example 134] (H-[NMeF]K[X2]F[dR]-OH) was tested. Which Ki did it give?
Answer: 6800 nM

Question: Which Ki does the source give for `CC(C)C[C@H](NC(=O)[C@H](CCC(N)=O)NC(=O)CCCCCNC(=O)[C@@H](N)Cc1c[nH]cn1)C(=O)NCC(=O)N[C@@H](CCCNC(=N)N)C(=O)O` [Example 4, H-Histidyl-{6-Aminohexanoyl}-Glutaminyl-Leucyl-Glycyl-Arginyl-OH] (H-H[Ahx]QLGR-OH) here?
Answer: 180000 nM

Question: Which Ki does the source give for `CN[C@@H](Cc1ccccc1)C(=O)N[C@@H](CCCCN)C(=O)N1CCC[C@H]1C(=O)N[C@H](CC1CCCCC1)C(=O)N[C@@H](Cc1ccccc1)C(C)N[C@@H](CCCNC(=N)N)C(=O)O` (mixture of isomers) [Example 143, (N-Methyl)Phenylalanyl-Lysyl-Prolyl-{(2R)-2-Amino-3-cyclohexylpropanoyl}-Phenylalanyl-.PSI.{(R/S)CH(CH3)NH}-Arginyl-OH] here?
Answer: 4200 nM

Question: Which Ki does the source give for `CN[C@@H](Cc1ccccc1)C(=O)N[C@@H](CCCCN)C(=O)N(C)[C@@H](Cc1ccccc1)C(=O)N[C@H](CC1CCCCC1)C(=O)N[C@@H](CC1CCCCC1)C(=O)N[C@H](CCCNC(=N)N)C(=O)O` [Example 61, (N-Methyl)Phenylalanyl-Lysyl-(N-Methyl)Phenylalanyl-{(2R)-2-Amino-3-cyclohexylpropanoyl}-{(2S)-2-Amino-3-cyclohexylpropanoyl}-DArginyl-OH] (H-[NMeF]K[NMeF][dCha][Cha][dR]-OH) here?
Answer: 220 nM

Question: For `CCCC[C@H](NC(=O)[C@H](Cc1ccccc1)NC)C(=O)N(C)[C@@H](C)C(=O)N[C@H](CC1CCCCC1)C(=O)N[C@@H](CC1CCCCC1)C(=O)N[C@H](CCCNC(=N)N)C(=O)O` [Example 62, (N-Methyl)Phenylalanyl-Norleucyl-(N-Methyl)Alanyl-{(2R)-2-Amino-3-cyclohexylpropanoyl}-{(2S)-2-Amino-3-cyclohexylpropanoyl}-DArginyl-OH] (H-[NMeF][Nle][NMeA][dCha][Cha][dR]-OH), which Ki is on record?
Answer: 260 nM

Question: For `C[C@H](NC(=O)[C@H](CCCCN)NC(=O)[C@@H](N)Cc1ccccc1)C(=O)N[C@H](CC1CCCCC1)C(=O)N(C)[C@@H](CC1CCCCC1)C(=O)N[C@H](CCCNC(=N)N)C(=O)O` [Example 40, H-Phenylalanyl-Lysyl-Alanyl-{(2R)-2-Amino-3-cyclohexylpropanoyl}-{(N-Methyl)(2S)-2-Amino-3cyclohexylpropanoyl}-DArginyl-OH] (H-FKA[dCha][NMeCha][dR]-OH), which Ki is on record?
Answer: 590 nM

Question: With `CN[C@@H](Cc1ccccc1)C(=O)N[C@@H](CCCCN)C(=O)N1CCC[C@H]1C(=O)N[C@H](CC1CCCCC1)C(=O)N[C@H](CN[C@H](CCCNC(=N)N)C(=O)O)Cc1ccccc1` [Example 2, (N-Methyl)Phenylalanyl-Lysyl-Prolyl-{(2R)-2-Amino-3-cyclohexylpropanoyl}-Phenylalanyl-.PSI.(CH2 NH)-DArginyl-OH] (H-[NMeF]KP[dCha]-X1) as the compound, how does the Ki read?
Answer: 1000 nM

Question: With `CN[C@@H](Cc1ccccc1)C(=O)N[C@@H](CCCCN)CN1CCC[C@H]1C(=O)N[C@H](CC1CCCCC1)C(=O)N[C@@H](CC1CCCCC1)C(=O)N[C@H](CCCNC(=N)N)C(=O)O` [Example 79, (N-Methyl)Phenylalanyl-Lysyl-.PSI.{CH2 NH}-Prolyl-{(2R)-2-Amino-3-cyclohexylpropanoyl}-{(2S)-2-Amino-3-cyclohexylpropanoyl}-DArginyl-OH] (H-[NMeF][X4][dCha][Cha][dR]-OH) as the compound, how does the Ki read?
Answer: 14500 nM

Question: Which Ki does the source give for `CN[C@@H](Cc1ccccc1)C(=O)N[C@@H](CCCCN)C(=O)N(C)CCCC(=O)N[C@@H](Cc1ccccc1)C(=O)N[C@H](CCCNC(=N)N)C(=O)O` [Example 121, (N-Methyl)Phenylalanyl-Lysyl-{4-(Methylamino)butanoyl}-Phenylalanyl-DArginyl-OH] (H-[NMeF]K[NMeGABA]F[dR]-OH) here?
Answer: 21000 nM

Question: With `CN(CC(=O)N[C@H](CC1CCCCC1)C(=O)N[C@@H](CC1CCCCC1)C(=O)N[C@H](CCCNC(=N)N)C(=O)O)C(=O)[C@H](CCCCN)NC(=O)[C@@H](N)Cc1ccccc1` [Example 56, H-Phenylalanyl-Lysyl-Sarcosyl-{(2R)-2-Amino-3-cyclohexylpropanoyl}-{(2S)-2-Amino-3-cyclohexylpropanoyl}-DArginyl-OH] (H-FK[Sar][dCha][Cha][dR]-OH) as the compound, how does the Ki read?
Answer: 14 nM

Question: Which Ki does the source give for `C[C@H](NC(=O)[C@H](CCCCN)NC(=O)[C@@H](N)Cc1ccccc1)C(=O)N[C@@H](CC1CCCCC1)C(=O)NCCC(=O)N[C@H](CCCNC(=N)N)C(=O)O` [Example 19, H-Phenylalanyl-Lysyl-Alanyl-{(2S)-2-Amino-3-cyclohexylpropanoyl}-{3-Aminopropanoyl}-DArginyl-OH] (H-FKA[Cha][βAla][dR]-OH) here?
Answer: 130000 nM

Question: Which Ki does the source give for `CN[C@@H](Cc1ccccc1)C(=O)N[C@@H](CCCCN)C(=O)N1CCC[C@H]1C(=O)N[C@H](CC1CCCCC1)C(=O)N[C@@H](Cc1ccccc1)C(=O)N[C@@H](CC(=O)O)Cc1ccccc1` [Example 170, (N-Methyl)Phenylalanyl-Lysyl-Prolyl-{(2R)-2-Amino-3-cyclohexylpropanoyl}-Phenylalanyl-{(3R)-Amino-4-phenylbutanoic acid}] (H-[NMeF]KP[dCha]F[d(β3hF)]-OH) here?
Answer: 2600 nM

Question: Which Ki does the source give for `CN[C@@H](Cc1ccccc1)C(=O)N[C@@H](CCCCN)C(=O)N(C)C(CCCc1ccccc1)C(=O)N[C@H](CC1CCCCC1)C(=O)N[C@@H](Cc1ccccc1)C(=O)N[C@H](CCCNC(=N)N)C(=O)O` (stereo partly drawn) [Example 156, (N-Methyl)Phenylalanyl-Lysyl-{(2R/S)-2-Methylamino-5-phenylpentanoyl}-{(2R)-2-Amino-3-cyclohexylpropanoyl}-Phenylalanyl-DArginyl-OH] (H-[NMeF]K[X3][dCha]F[dR]-OH) here?
Answer: 660 nM

Question: `CC(C)C[C@H](NC(=O)[C@H](CC1CCCCC1)NC(=O)[C@H](C)N(C)C(=O)[C@H](CCCCN)NC(=O)[C@@H](N)Cc1ccccc1)C(=O)N[C@H](C)C(=O)N[C@@H](CCCNC(=N)N)C(=O)O` [Example 17, H-Phenylalanyl-Lysyl-(N-Methyl)Alanyl-{(2S)-2-Amino-3-cyclohexylpropanoyl}-Leucyl-DAlanyl-Arginyl-OH] (H-FK[NMeA][Cha]L[dA]R-OH) was tested. Which Ki did it give?
Answer: 2500 nM
